Tests used:
Format in all cases: cell-based
[1] = molecular target: T1, GSPT1 (eRF3a) (Homo sapiens, UniProt P15170+Q96SW2); experiment: Western blot assay in PC-3 cells: GSPT1 (eRF3a); details: different concentrations at 24 h (FIG. 9)
T1 construct: The downregulation of SRD5A3 and GSPT1 (eRF3a) proteins in PC-3 and HepG2 cells by C59; endogenous in cells; host or cells: 22Rv1, PC-3, HepG2
Excerpt: (§1) Example 84: Western Blot Assay of Compound C59 in 22Rv1, PC-3, and HepG2 Cells
(§2) (1) Materials: 22Rv1, PC-3, and HepG2 cell, anti-SRD5A1 antibody (ab167606), anti-SRD5A2 antibody (ab124877), anti-SRD5A3 antibody (PA5-107029), anti-androgen receptor (AR) antibody (CST, No. 5153), anti-GSPT1 antibody (Abcam, ab234433), anti-GADPH antibody (CST, No. 5174), anti-c-Myc antibody (CST, No. 8583), anti-α-tublin antibody (CST, No. 2125), anti-rabbit IgG, HRP-linked antibody (CST, No. 7074), electrophoresis device and membrane transfer device (LIUYI, BEIJING; DYCZ-24DN)
(§3) Cell seeding: 22Rv1 (Cell Bank of the Chinese Academy of Sciences, TCHu100), PC-3 (Cell Bank of the Chinese Academy of Sciences, SCSP-532) and HepG2 cells (Cell Bank of the Chinese Academy of Sciences, TCHu72) were subcultured and trypsinized to prepare 6×10^5 cells/mL suspensions, seeded on 6-well plates (3 mL/well), and cultured overnight in a cell incubator at 5% CO2 and 37° C. […]
(§4) Protein quantification: The protein was quantified using a BCA protein quantification kit. […]
(§5) Western immunoblot assay (or Western blot, WB): SDS-PAGE gel at a proper concentration was prepared according to the molecular weight of the target protein: for example, the concentration of the separation gel was 8% and the concentration of the stacking gel was 5%. The loading volume was adjusted according to the protein quantification results. […]

[2] = molecular target: T2, SRD5A3 (Homo sapiens, UniProt Q9H8P0); experiment: Western blot assay in 22Rv1 cells: SRD5A3; details: different concentrations at 24 h, and 3 nM at different time points (FIGS. 7 and 8)
T2 construct: The downregulation of SRD5A3 and GSPT1 (eRF3a) proteins in PC-3 and HepG2 cells by C59; endogenous in cells; host or cells: 22Rv1, PC-3, HepG2
T2 sequence (Q9H8P0 1-318): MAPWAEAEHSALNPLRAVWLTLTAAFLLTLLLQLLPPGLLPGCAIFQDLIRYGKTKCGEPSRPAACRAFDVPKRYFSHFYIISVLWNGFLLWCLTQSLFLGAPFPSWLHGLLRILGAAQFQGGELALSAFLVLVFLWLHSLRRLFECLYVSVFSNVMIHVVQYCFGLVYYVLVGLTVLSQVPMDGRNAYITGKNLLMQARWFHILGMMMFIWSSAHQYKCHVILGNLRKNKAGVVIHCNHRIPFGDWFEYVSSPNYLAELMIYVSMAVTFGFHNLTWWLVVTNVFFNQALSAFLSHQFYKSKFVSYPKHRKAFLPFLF
Excerpt: as §1, §2, §3, §4, §5

[3] = molecular target: T3, SRD5A1 (Homo sapiens, UniProt P18405); experiment: Western blot assay in 22Rv1 cells: SRD5A1; details: different concentrations at 24 h, and 3 nM at different time points (FIGS. 7 and 8)
T3 construct: The downregulation of SRD5A1, SRD5A3, AR, ARV7, GSPT1 proteins in 22Rv1 cells by C59; endogenous in cells; host or cells: 22Rv1
Excerpt: as §1, §2, §3, §4, §5

[4] = system: OVCAR-3 cells; experiment: Anti-proliferative toxicity of C63 in tumor cell lines (CCK8): OVCAR-3; details: Homo sapiens, 72 h, 3 days, read-out: Inhibition rate
Method: Example 83: Detection of Anti-Proliferative Toxicity of C63 in Some Tumor Cell Lines
OVCAR-3 cells (purchased from the Cell Bank of the Chinese Academy of Sciences, Cat. No. TCHu228) were subcultured in a culture medium (RPMI-1640 medium+1% penicillin-streptomycin dual-antibiotic solution++20% fetal bovine serum+0.01 mg/mL recombinant human insulin) in an incubator at 5% carbon dioxide and 37° C.
OVCAR-3 cells were seeded at 2000 cells/well (90 μL) on a 96-well plate and cultured for 24 h.
10 mM compound stock solutions were prepared in DMSO.
The compound stock solution was diluted with DMSO to give DMSO solutions 1-9 at concentrations of 0 μM, 2500 μM, 500 μM, 100 μM, 20 μM, 4 μM, 0.8 μM, 0.16 μM, and 0.032 μM.
2 μL of each of solutions 1-9 was added to 98 μL of the medium to give mixed solutions 11-19 of the compound and the medium.
10 μL of each of solutions 11-19 was added to the above cell seed solution to give a total volume of 100 μL (90 μL+10 μL).
The concentrations of the compound in the wells were 0 μM, 5.0 μM, 1.0 μM, 0.2 μM, 0.04 μM, 0.008 μM, 0.0016 μM, 0.00032 μM, and 0.000064 μM. All concentrations were in triplicate.
After the above-treated cells were cultured for 3 days, 10 μL of the CCK8 solution (DOJINDO, Cat. No. PF725) was added to each well. The plate was incubated in an incubator at 37° C. for 1-4 h and then detected on a microplate reader for the reading at 450 nm.

T3 sequence (P18405 whole entry): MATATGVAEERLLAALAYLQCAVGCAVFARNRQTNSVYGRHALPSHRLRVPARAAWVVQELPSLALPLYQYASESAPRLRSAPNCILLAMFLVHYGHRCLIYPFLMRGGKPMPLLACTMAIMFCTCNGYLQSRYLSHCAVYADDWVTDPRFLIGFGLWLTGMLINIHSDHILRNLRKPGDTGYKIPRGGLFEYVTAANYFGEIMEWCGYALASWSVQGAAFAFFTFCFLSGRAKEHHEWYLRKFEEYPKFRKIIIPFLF
T1 sequence (P15170 1-637 isoform P15170-3): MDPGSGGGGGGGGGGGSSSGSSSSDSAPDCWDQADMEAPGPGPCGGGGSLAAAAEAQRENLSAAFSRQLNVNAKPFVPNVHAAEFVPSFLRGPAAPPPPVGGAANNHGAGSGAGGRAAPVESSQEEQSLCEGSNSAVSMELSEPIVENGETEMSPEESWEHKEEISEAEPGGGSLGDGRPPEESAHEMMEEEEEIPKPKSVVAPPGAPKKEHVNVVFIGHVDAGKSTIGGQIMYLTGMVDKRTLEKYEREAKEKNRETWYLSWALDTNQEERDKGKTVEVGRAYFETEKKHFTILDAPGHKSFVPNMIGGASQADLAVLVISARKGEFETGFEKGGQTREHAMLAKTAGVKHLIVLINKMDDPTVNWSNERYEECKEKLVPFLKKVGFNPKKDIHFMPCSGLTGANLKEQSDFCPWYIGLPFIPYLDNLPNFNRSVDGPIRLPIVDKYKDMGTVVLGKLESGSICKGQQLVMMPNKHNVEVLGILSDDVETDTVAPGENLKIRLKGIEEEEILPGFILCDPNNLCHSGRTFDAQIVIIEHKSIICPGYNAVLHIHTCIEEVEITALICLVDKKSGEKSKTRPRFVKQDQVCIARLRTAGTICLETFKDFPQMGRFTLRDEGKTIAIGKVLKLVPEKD
T1 sequence (Q96SW2 whole entry): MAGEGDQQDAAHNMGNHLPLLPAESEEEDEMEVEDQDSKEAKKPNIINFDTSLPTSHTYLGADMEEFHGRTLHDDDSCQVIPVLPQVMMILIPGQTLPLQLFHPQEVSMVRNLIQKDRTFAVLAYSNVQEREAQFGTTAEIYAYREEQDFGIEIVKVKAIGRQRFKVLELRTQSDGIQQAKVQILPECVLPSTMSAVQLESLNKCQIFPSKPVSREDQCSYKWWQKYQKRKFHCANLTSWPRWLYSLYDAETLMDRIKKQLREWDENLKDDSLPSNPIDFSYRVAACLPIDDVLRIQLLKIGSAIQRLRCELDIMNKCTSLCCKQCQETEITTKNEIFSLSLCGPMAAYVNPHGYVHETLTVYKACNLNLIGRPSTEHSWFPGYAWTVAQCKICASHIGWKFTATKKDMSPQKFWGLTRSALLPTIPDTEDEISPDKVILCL
T1 sequence (Q16531 whole entry partner): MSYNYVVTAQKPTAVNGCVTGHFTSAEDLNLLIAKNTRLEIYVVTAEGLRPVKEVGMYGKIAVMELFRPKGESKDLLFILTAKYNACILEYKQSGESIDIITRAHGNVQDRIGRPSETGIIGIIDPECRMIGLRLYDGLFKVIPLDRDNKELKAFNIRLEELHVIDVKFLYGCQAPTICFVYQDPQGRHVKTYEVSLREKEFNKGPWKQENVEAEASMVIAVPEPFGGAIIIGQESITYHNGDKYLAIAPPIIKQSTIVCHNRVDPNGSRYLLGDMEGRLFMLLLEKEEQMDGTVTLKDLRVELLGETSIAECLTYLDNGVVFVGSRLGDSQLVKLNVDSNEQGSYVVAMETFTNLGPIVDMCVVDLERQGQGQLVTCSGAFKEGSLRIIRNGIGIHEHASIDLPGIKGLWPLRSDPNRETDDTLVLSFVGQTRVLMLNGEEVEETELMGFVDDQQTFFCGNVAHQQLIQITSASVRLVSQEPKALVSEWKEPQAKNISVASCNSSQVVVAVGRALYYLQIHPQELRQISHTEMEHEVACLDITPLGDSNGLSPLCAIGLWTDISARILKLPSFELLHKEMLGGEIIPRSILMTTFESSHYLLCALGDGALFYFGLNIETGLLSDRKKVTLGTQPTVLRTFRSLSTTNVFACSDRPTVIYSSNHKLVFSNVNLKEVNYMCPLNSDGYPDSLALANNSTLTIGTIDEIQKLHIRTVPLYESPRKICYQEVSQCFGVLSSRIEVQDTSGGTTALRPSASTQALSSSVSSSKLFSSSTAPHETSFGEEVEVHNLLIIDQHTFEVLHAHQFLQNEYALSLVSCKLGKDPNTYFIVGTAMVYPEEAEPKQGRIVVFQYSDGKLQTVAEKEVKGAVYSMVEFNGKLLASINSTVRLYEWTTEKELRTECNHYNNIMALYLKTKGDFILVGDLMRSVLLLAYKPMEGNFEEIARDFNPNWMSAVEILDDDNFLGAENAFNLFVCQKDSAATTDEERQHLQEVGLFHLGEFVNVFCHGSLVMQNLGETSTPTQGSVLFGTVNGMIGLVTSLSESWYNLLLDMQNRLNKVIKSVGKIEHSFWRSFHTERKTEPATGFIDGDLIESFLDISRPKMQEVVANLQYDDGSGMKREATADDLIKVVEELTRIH

Row | SMILES | downregulation of GSPT1 (eRF3a) protein (Western blot) [1] | downregulation of SRD5A3 protein (Western blot) [2] | downregulation of SRD5A1 protein (Western blot) [3] | inhibition at 64 pM ([4]; 0.000064 μM) [%] | inhibition at 0.00032 µM ([4]; 0.000320 μM) [%] | inhibition at 0.0016 µM ([4]; 0.001600 μM) [%] | inhibition at 0.008 µM ([4]; 0.008000 μM) [%] | inhibition at 0.04 µM ([4]; 0.040000 μM) [%] | inhibition at 0.2 µM ([4]; 0.200000 μM) [%] | inhibition at 1 µM ([4]; 1.000000 μM) [%] | inhibition at 5 µM ([4]; 5.000000 μM) [%]
1 | C[C@]12C=CC(=O)N[C@@H]1CC[C@@H]1[C@@H]2CC[C@]2(C)[C@@H](C(=O)Nc3cccc(N[C@@H]4CCC[C@@H](Nc5cccc6c5C(=O)N(C5CCC(=O)NC5=O)C6=O)C4)c3)CC[C@@H]12 (stereo partly drawn) [C59, N-(3-(N—(N-(4-(2-(3-(2,6-dioxopiperidine))-isoindole-1,3-dione))-1R,3R-cyclohexanediamine))phenyl)-3-oxo-4-aza-5α-androst-1-ene-17β-carboxamide] | downregulation | downregulation | downregulation | – | – | – | – | – | – | – | –
2 | C[C@]12C=CC(=O)N[C@@H]1CC[C@@H]1[C@@H]2CC[C@]2(C)[C@@H](C(=O)Nc3cccc(N[C@@H]4CCC[C@@H](Nc5cccc6c5C(=O)N([C@H]5CCC(=O)NC5=O)C6=O)C4)c3)CC[C@@H]12 [C63, N-(3-(N—(N-(4-(2-(3S-(2,6-dioxopiperidine))-isoindole-1,3-dione))-1R,3R-cyclohexanediamine))phenyl)-3-oxo-4-aza-5α-androst-1-ene-17β-carboxamide] | – | – | – | 17.9 | 16.4 | 42.6 | 61.4 | 74.4 | 80 | 83.7 | 85

Reference: patent US20250213701A1, “MEDICAMENT FOR TREATING HUMAN TUMOR BASED ON ERF3A-TARGETING PROTEOLYSIS MECHANISM” (SUZHOU DEGEN BIO-MEDICAL CO., LTD., priority 2022, published 2025)
